Here are results for 14 molecules from PubChem BioAssay AID220 (DTP/NCI, 2004).

This experiment deals with CD8F1 mice, subcutaneous mammary adenocarcinoma, T/C%. Description: NCI In Vivo Anticancer Drug Screen. Data for tumor model Mammary Adenocarcinoma CD8F1 (subcutaneous) in CD8F1. The note with it: higher = larger tumour. In outline:
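Antitumor activity is assessed in transplantable-tumor mice by comparing the treated group with a vehicle-treated control group. Survival or tumor size serves as the measure, reported as T divided by C.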

Where [1] appears, read: endpoint: mean tumor weight, dose: 25.0 mg/kg/injection, schedule: Q07DX007 (ip), vehicle: saline.
[2] abbreviates: endpoint: median tumor weight (est.), dose: 3.12 mg/kg/injection, schedule: Q07DX005 (ip), vehicle: saline with Tween-80.
The mark [3] stands for this setting: endpoint: median tumor weight (est.), dose: 6.25 mg/kg/injection, schedule: Q07DX005 (ip), vehicle: saline with Tween-80.
[4] abbreviates: endpoint: median tumor weight (est.), dose: 12.5 mg/kg/injection, schedule: Q07DX005 (ip), vehicle: saline with Tween-80.
Setting [5] is: endpoint: median tumor weight (est.), dose: 12.5 mg/kg/injection, schedule: Q07DX005 (ip), vehicle: saline.
Where [6] appears, read: endpoint: median tumor weight (est.), dose: 25.0 mg/kg/injection, schedule: Q07DX005 (ip), vehicle: saline.
Where [7] appears, read: endpoint: median tumor weight (est.), dose: 50.0 mg/kg/injection, schedule: Q07DX005 (ip), vehicle: saline.
The mark [8] stands for this setting: endpoint: median tumor weight (est.), dose: 100.0 mg/kg/injection, schedule: Q07DX005 (ip), vehicle: saline.
The mark [9] stands for this setting: endpoint: median tumor weight (est.), dose: 50.0 mg/kg/injection, schedule: Q07DX005 (ip), vehicle: saline with Tween-80.

The structures appear in SMILES notation. “And” between values parts separate entries of the source, which are not always exact repeats. Identical values can stand only once. Records with an inconclusive call do not appear.

Take `O=c1cc[nH]c(=O)o1`: the T/C is 75 % of control (endpoint: mean tumor weight, dose: 5.0 mg/kg/injection, schedule: Q04DX008 (ip), vehicle: water); 109 % of control (endpoint: mean tumor weight, dose: 10.0 mg/kg/injection, schedule: Q04DX008 (ip), vehicle: water); 70 % of control (endpoint: mean tumor weight, dose: 20.0 mg/kg/injection, schedule: Q04DX008 (ip), vehicle: water); 112 % of control (endpoint: mean tumor weight, dose: 25.0 mg/kg/injection, schedule: Q07DX005 (ip), vehicle: saline); 152 % of control under setting [1]; 54 % of control (endpoint: mean tumor weight, dose: 50.0 mg/kg/injection, schedule: Q07DX005 (ip), vehicle: saline). Besides, the T/C (endpoint: mean tumor weight, dose: 50.0 mg/kg/injection, schedule: Q07DX007 (ip), vehicle: saline) is 87 % of control; the T/C (endpoint: mean tumor weight, dose: 75.0 mg/kg/injection, schedule: Q07DX007 (ip), vehicle: saline) is 46 % of control; the T/C (endpoint: median tumor weight (est.), dose: 12.2 mg/kg/injection, schedule: Q07DX005 (ip), vehicle: saline) is 62 % of control; the T/C (endpoint: median tumor weight (est.), dose: 28.0 mg/kg/injection, schedule: Q07DX005 (ip), vehicle: saline) was 83 % of control; the T/C (endpoint: median tumor weight (est.), dose: 42.0 mg/kg/injection, schedule: Q07DX005 (ip), vehicle: saline) was 118 % of control; the T/C (endpoint: median tumor weight (est.), dose: 63.0 mg/kg/injection, schedule: Q07DX005 (ip), vehicle: saline) is 67 % of control.
As to `Nc1c(Cl)c(Cl)nc(C(=O)O)c1Cl`, the T/C is, setting by setting: (endpoint: mean tumor weight, dose: 6.25 mg/kg/injection, schedule: Q01DX015 (ip), vehicle: saline) 114 % of control; (endpoint: mean tumor weight, dose: 6.25 mg/kg/injection, schedule: Q07DX007 (ip), vehicle: saline) 94 % of control; (endpoint: mean tumor weight, dose: 12.5 mg/kg/injection, schedule: Q01DX015 (ip), vehicle: saline) 102 % of control; (endpoint: mean tumor weight, dose: 12.5 mg/kg/injection, schedule: Q07DX007 (ip), vehicle: saline) 102 % of control; (endpoint: mean tumor weight, dose: 25.0 mg/kg/injection, schedule: Q01DX015 (ip), vehicle: saline) 124 % of control; under setting [1], 83 % of control. Besides, the T/C is 64 % of control (endpoint: mean tumor weight, dose: 200.0 mg/kg/injection, schedule: Q07DX006 (ip), vehicle: saline) and 168 % of control (endpoint: mean tumor weight, dose: 300.0 mg/kg/injection, schedule: Q07DX006 (ip), vehicle: saline).
Regarding `[Cl][Pt+2][Cl].[NH-]C1CCC1.[NH2-]`, the T/C by setting is: (endpoint: median tumor weight change, dose: 6.25 mg/kg/injection, schedule: Q01DX001 (ip), vehicle: suspension in saline) 96 % of control; (endpoint: median tumor weight change, dose: 12.5 mg/kg/injection, schedule: Q01DX001 (ip), vehicle: suspension in saline) 99 % of control.
On to `CCCCNc1ccc2nnc(C)n2n1`, for which the T/C is 111 % of control (endpoint: median tumor weight change, dose: 62.5 mg/kg/injection, schedule: Q01DX001 (ip), vehicle: DMSO) and 118 % of control (endpoint: median tumor weight change, dose: 125.0 mg/kg/injection, schedule: Q01DX001 (ip), vehicle: DMSO).
With `NC(N)=NC(N)=Nc1ccc(-c2ccc(N=C(N)N=C(N)N)cc2)cc1`, the T/C runs as follows: under setting [2], 108 % of control; under setting [3], 118 % of control; under setting [4], 156 % of control.
Regarding `Cc1cc2c(C(C)C)c(O)c(O)c(C=O)c2c(O)c1-c1c(C)cc2c(C(C)C)c(O)c(O)c(C=O)c2c1O`, for the setting “endpoint: median tumor weight change, dose: 31.25 mg/kg/injection, schedule: Q01DX001 (ip), vehicle: saline with Tween-80”, the T/C is 65 % of control.
Regarding `O=c1[nH]c(=O)c2nc(-c3cccnc3)cnc2[nH]1`, the T/C under setting [5] was 122 % of control; the T/C under setting [6] was 93 % of control; the T/C under setting [7] is 58 % of control; the T/C under setting [8] is 93 % of control; the T/C (endpoint: median tumor weight (est.), dose: 200.0 mg/kg/injection, schedule: Q07DX005 (ip), vehicle: saline) is 90 % of control; the T/C (endpoint: median tumor weight (est.), dose: 400.0 mg/kg/injection, schedule: Q07DX005 (ip), vehicle: saline) was 62 % of control.
Consider `O=C1NC(=O)C2C3C=CC(C12)C1C2C(=O)NC(=O)C2C31` (stereo not given), for which the T/C is 62 % of control (endpoint: median tumor weight change, dose: 18.0 mg/kg/injection, schedule: Q01DX005 (ip), vehicle: water); 17 % of control (endpoint: median tumor weight change, dose: 30.0 mg/kg/injection, schedule: Q01DX005 (ip), vehicle: water); -5 % of control (endpoint: median tumor weight change, dose: 50.0 mg/kg/injection, schedule: Q01DX005 (ip), vehicle: water); 64 % of control (endpoint: median tumor weight change, dose: 54.0 mg/kg/injection, schedule: Q01DX001 (ip), vehicle: saline); 70 % of control (endpoint: median tumor weight change, dose: 62.0 mg/kg/injection, schedule: Q01DX001 (ip), vehicle: saline with Tween-80); 78 % of control (endpoint: median tumor weight change, dose: 62.5 mg/kg/injection, schedule: Q01DX001 (ip), vehicle: saline with Tween-80). For the same molecule, the T/C is 30 % of control (endpoint: median tumor weight change, dose: 90.0 mg/kg/injection, schedule: Q01DX001 (ip), vehicle: saline); 15 % of control and 27 % of control (endpoint: median tumor weight change, dose: 125.0 mg/kg/injection, schedule: Q01DX001 (ip), vehicle: saline with Tween-80); -25 % of control (endpoint: median tumor weight change, dose: 250.0 mg/kg/injection, schedule: Q01DX001 (ip), vehicle: saline with Tween-80).
For `COc1cc(O)c2c(O)c3c(c4c2c1[C@]1(C4)C(C)=CCCC1(C)C)[C@H](O)[C@@]1(O)CC(=O)C(C(N)=O)=C(O)[C@@]1(O)C3=O`, the T/C is 56 % of control under setting [3]; 47 % of control (endpoint: median tumor weight (est.), dose: 6.25 mg/kg/injection, schedule: Q07DX005 (ip), vehicle: saline); 92 % of control under setting [4]; 58 % of control under setting [5]; 95 % of control (endpoint: median tumor weight (est.), dose: 25.0 mg/kg/injection, schedule: Q07DX005 (ip), vehicle: saline with Tween-80); 87 % of control under setting [6]. Also, the T/C is 89 % of control under setting [9], 81 % of control under setting [7] and 37 % of control under setting [8].
Consider `CCC(C)Nc1ccc(N)cc1` (stereo not given), for which the T/C was 90 % of control (endpoint: median tumor weight (est.), dose: 0.18 mg/kg/injection, schedule: Q07DX005 (ip), vehicle: Klucel (hydroxypropylcellulose) (HPC)); 92 % of control (endpoint: median tumor weight (est.), dose: 0.37 mg/kg/injection, schedule: Q07DX005 (ip), vehicle: Klucel (hydroxypropylcellulose) (HPC)); 86 % of control (endpoint: median tumor weight (est.), dose: 0.75 mg/kg/injection, schedule: Q07DX005 (ip), vehicle: Klucel (hydroxypropylcellulose) (HPC)); 107 % of control (endpoint: median tumor weight (est.), dose: 1.5 mg/kg/injection, schedule: Q07DX005 (ip), vehicle: Klucel (hydroxypropylcellulose) (HPC)); 123 % of control (endpoint: median tumor weight change, dose: 0.2 mg/kg/injection, schedule: Q01DX001 (ip), vehicle: Klucel (hydroxypropylcellulose) (HPC)); 93 % of control (endpoint: median tumor weight change, dose: 0.37 mg/kg/injection, schedule: Q01DX001 (ip), vehicle: Klucel (hydroxypropylcellulose) (HPC)). Also, the T/C (endpoint: median tumor weight change, dose: 0.75 mg/kg/injection, schedule: Q01DX001 (ip), vehicle: Klucel (hydroxypropylcellulose) (HPC)) was 89 % of control; the T/C (endpoint: median tumor weight change, dose: 1.5 mg/kg/injection, schedule: Q01DX001 (ip), vehicle: Klucel (hydroxypropylcellulose) (HPC)) was 101 % of control; the T/C (endpoint: median tumor weight change, dose: 3.0 mg/kg/injection, schedule: Q01DX001 (ip), vehicle: Klucel (hydroxypropylcellulose) (HPC)) was 119 % of control.
Regarding `NC(=O)/C=C/c1c[nH]c2nccnc12`, the T/C is 124 % of control (endpoint: median tumor weight change, dose: 31.25 mg/kg/injection, schedule: Q01DX001 (ip), vehicle: water); 73 % of control (endpoint: median tumor weight change, dose: 62.5 mg/kg/injection, schedule: Q01DX001 (ip), vehicle: water); 58 % of control (endpoint: median tumor weight change, dose: 125.0 mg/kg/injection, schedule: Q01DX001 (ip), vehicle: water).
In the case of `CN(C)c1ccc2c(N(C)C)cc(N(C)C)nc2c1`, the T/C by setting is: (endpoint: median tumor weight (est.), dose: 3.12 mg/kg/injection, schedule: Q07DX005 (ip), vehicle: Klucel (hydroxypropylcellulose) (HPC)) 58 % of control; (endpoint: median tumor weight (est.), dose: 6.25 mg/kg/injection, schedule: Q07DX005 (ip), vehicle: Klucel (hydroxypropylcellulose) (HPC)) 78 % of control.
For `O=c1cc(CCl)[nH]nc1CCl`, the T/C is 86 % of control and 88 % of control under setting [2]; 96 % of control and 103 % of control under setting [3]; 92 % of control and 106 % of control under setting [4]; 55 % of control under setting [9].
On to `CCc1nc(N)nc(N)c1-c1ccc(Cl)c(Cl)c1`, for which the T/C was 107 % of control (endpoint: mean tumor weight (est.), dose: 40.0 mg/kg/injection, schedule: Q07DX003 (ip), vehicle: saline with Tween-80); 100 % of control (endpoint: mean tumor weight (est.), dose: 50.0 mg/kg/injection, schedule: Q07DX003 (ip), vehicle: saline with Tween-80); 93 % of control (endpoint: mean tumor weight (est.), dose: 60.0 mg/kg/injection, schedule: Q07DX003 (ip), vehicle: saline with Tween-80); 35 % of control (endpoint: mean tumor weight (est.), dose: 60.0 mg/kg/injection, schedule: Q07DX004 (ip), vehicle: saline with Tween-80); 50 % of control (endpoint: mean tumor weight (est.), dose: 80.0 mg/kg/injection, schedule: Q07DX004 (ip), vehicle: saline with Tween-80).
